The source of these data is patent publication US8163160B2, “Biosensor having improved hematocrit and oxygen biases” (Abbott Diabetes Care Inc., priority 2002, dated 2012).

A short description of the data set: Solubility tests in water. It counts as physicochemical. Here is the method:
Solubility tests in water were performed on the new redox mediators in comparison with the standard PQ mediators.

Values after ≈ are worked out from the molar mass of the structure shown. Bounds are passed on as bounds.

For the molecule `O=C1C(=O)c2cccnc2-c2ncccc21` [PQ, 1,10-phenanthroline-5,6-dione, reference compound], the “Solubility in Water (percent)” value is listed as “mg/ml (0.2%)” and the concentration in solution (solubility) was 2000 µg/mL (≈ 9.52 mM).

Regarding `O=C1C(=O)c2cccnc2-c2ncccc21.O=C1C(=O)c2cccnc2-c2ncccc21.O=C1C(=O)c2cccnc2-c2ncccc21.[Ni+2].[O-][Cl+3]([O-])([O-])[O-].[O-][Cl+3]([O-])([O-])[O-]` [[Ni(PQ)3](ClO4)2], the “Solubility in Water” value was less than 500 µg/mL and the “Solubility in Water (percent)” value is on record as “mg/ml (<0.05%)”.

Turning to `CC(=O)[O-].CC(=O)[O-].O=C1C(=O)c2cccnc2-c2ncccc21.O=C1C(=O)c2cccnc2-c2ncccc21.O=C1C(=O)c2cccnc2-c2ncccc21.[Ni+2]` [[Ni(PQ)3](O2CCH3)2], the “Solubility in Water” value was more than 500000 µg/mL and the “Solubility in Water (percent)” value is reported as “mg/ml (>50%)”.

One may read the solubility as the dissolved amount per volume that the medium holds. Read a high solubility as a readily soluble substance.
